The values below come from ChEMBL document CHEMBL1201862, “PubChem BioAssay data set” (2004).

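In this assay, cells in 96-well plates receive the compound at five concentrations for 48 hours. Endpoints are linearly interpolated between the surrounding concentrations. Abbreviation: GI50, concentration required for 50% inhibition of growth.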 Activity calls are given as the source filed them. Cut-off read from the data, not from the text of the source: active = GI50 up to about 1.1 µM and inactive = higher.

Among the test systems are OVCAR-3; LOX IMVI; Malme-3M; SK-MEL-28; A498; UO-31; SF-268; CCRF-CEM; SK-OV-3; ACHN; HOP-92; A549; SK-MEL-2; M14; HOP-62; SK-MEL-5; CAKI-1.
Holding throughout (assay): NCI-60 cell line screen, 48 h

Consider `O/N=C1/C(=C/c2ccc(Br)cc2)CCCC1C(NO)c1ccc(Br)cc1` (centres undefined), for which the GI50 in the experiment with OVCAR-3 is 17.4 µM (inactive); in the experiment with LOX IMVI it was 20.4 µM (inactive); in the experiment on Malme-3M, 15.7 µM (inactive); with SK-MEL-28 it was 18.6 µM (inactive); in the experiment with A498, 10.3 µM (inactive); with UO-31 it was 16 µM (inactive). Moreover, the GI50 with SF-268 was 13.6 µM (inactive); in the experiment on CCRF-CEM it was 18 µM (inactive); in the experiment with SK-OV-3, 24.7 µM (inactive); in the experiment on ACHN, 17 µM (inactive); with HOP-92, 12.6 µM (inactive); with A549, 15.4 µM (inactive). Further, the GI50 was 16.7 µM (inactive) with SK-MEL-2 and 15.4 µM (inactive) in the experiment on M14.

Regarding `CCc1ccccc1-n1c2nc(=O)n(C)c(=O)c-2nc2ccccc21`, the GI50 was 2.49 µM (inactive) with OVCAR-3; 29.6 µM (inactive) in the experiment with HOP-62; 4.29 µM (inactive) in the experiment with SK-MEL-5; 5.7 µM (inactive) in the experiment with Malme-3M; 15.9 µM (inactive) with A498; 21.5 µM (inactive) in the experiment with UO-31. Further, the GI50 with SF-268 was 11 µM (inactive); with CCRF-CEM it was 11.2 µM (inactive); in the experiment with SK-OV-3 it was 40.2 µM (inactive); with ACHN, 3.92 µM (inactive); in the experiment with A549, 8.24 µM (inactive); in the experiment on CAKI-1, 20 µM (inactive). Further, the GI50 with SK-MEL-2 was 17.4 µM (inactive); with M14, 6.59 µM (inactive).

As for `Cc1nc(C(N)=S)sc1C(=O)/C=C/c1c(O)ccc2ccccc12`, the GI50 is 36.6 µM (inactive) in the experiment with OVCAR-3; > 100 µM (inactive) with HOP-62; 26 µM (inactive) in the experiment with LOX IMVI; 32.4 µM (inactive) in the experiment on SK-MEL-5; > 90.2 µM (inactive) with Malme-3M; > 71.6 µM (inactive) in the experiment with SK-MEL-28. The GI50 was > 100 µM (inactive) with A498; 58.2 µM (inactive) with UO-31; 28.5 µM (inactive) in the experiment with SF-268; 21.6 µM (inactive) with CCRF-CEM; > 100 µM (inactive) with SK-OV-3; > 100 µM (inactive) with ACHN. For the same compound, the GI50 is > 74.1 µM (inactive) in the experiment with HOP-92; > 100 µM (inactive) in the experiment on A549; > 87.5 µM (inactive) in the experiment on CAKI-1; > 100 µM (inactive) in the experiment with SK-MEL-2; > 100 µM (inactive) with M14.

As to `Cc1ccc(C(=O)/C=C/c2ccccc2Cl)cc1`, the GI50 with OVCAR-3 was 17.3 µM (inactive); in the experiment with HOP-62, 68.5 µM (inactive); with SK-MEL-5, 20.9 µM (inactive); in the experiment with Malme-3M it was 23.5 µM (inactive); in the experiment on SK-MEL-28, 14.2 µM (inactive); with A498 it was 25.4 µM (inactive). Further, the GI50 in the experiment on UO-31 is 18.6 µM (inactive); with SF-268 it was 20.5 µM (inactive); with CCRF-CEM, 18.8 µM (inactive); in the experiment with SK-OV-3, 39.4 µM (inactive); in the experiment on ACHN it was 15.9 µM (inactive); with HOP-92, 30.1 µM (inactive). Besides, the figures for the GI50 in the experiment with A549, with CAKI-1 and with M14 were 33.7 µM (inactive), 16.8 µM (inactive) and 17.6 µM (inactive), respectively.

`C/C(CC(=O)CCC(=O)Nc1cccc(C(F)(F)F)c1)=N\NC(=O)NN`: the GI50 with OVCAR-3, with HOP-62, in the experiment with SK-MEL-5, in the experiment with Malme-3M, in the experiment with SK-MEL-28 and in the experiment with A498 was > 100 µM (inactive) each time. Also, the GI50 with UO-31, in the experiment with SF-268, in the experiment with CCRF-CEM, in the experiment with SK-OV-3, in the experiment on ACHN and with HOP-92 was > 100 µM (inactive) in each case. Further, the GI50 in the experiment with A549, with CAKI-1, in the experiment with SK-MEL-2 and in the experiment with M14 was > 100 µM (inactive) in each case.

With `CC(=O)NNc1nc(C)c(C(=O)/C=C/c2ccc(N(C)C)cc2)s1`, the GI50 in the experiment with OVCAR-3, with HOP-62, with LOX IMVI, with SK-MEL-5, in the experiment with Malme-3M and in the experiment with SK-MEL-28 was > 100 µM (inactive) each time. Moreover, the GI50 in the experiment on A498, in the experiment on UO-31, in the experiment on SF-268, in the experiment on CCRF-CEM, in the experiment on SK-OV-3 and with ACHN was > 100 µM (inactive) each time. Moreover, the GI50 in the experiment with HOP-92, in the experiment with A549, with CAKI-1 and in the experiment on SK-MEL-2 was > 100 µM (inactive) each time.

`C#CC[N+](C)(CC#C)CC#C`: the GI50 in the experiment with OVCAR-3, in the experiment on HOP-62, in the experiment on LOX IMVI, in the experiment on SK-MEL-5, with Malme-3M and with SK-MEL-28 was > 100 µM (inactive) throughout. Moreover, the GI50 in the experiment on UO-31, in the experiment with SF-268, in the experiment on CCRF-CEM, with SK-OV-3, in the experiment with ACHN and with HOP-92 was > 100 µM (inactive) each time. The GI50 in the experiment with A549, in the experiment with CAKI-1, in the experiment on SK-MEL-2 and in the experiment on M14 was > 100 µM (inactive) throughout.

Consider `NC1=NN(c2ccccc2)C(=O)C1C(=O)C(=O)Nc1cccc(C(F)(F)F)c1` (centres undefined), for which the GI50 in the experiment with OVCAR-3, in the experiment on HOP-62, in the experiment on LOX IMVI, in the experiment on SK-MEL-5, with Malme-3M and in the experiment with A498 was > 100 µM (inactive) in each case. The GI50 in the experiment with UO-31 is > 100 µM (inactive); with SF-268, > 100 µM (inactive); with CCRF-CEM, > 100 µM (inactive); in the experiment on SK-OV-3, > 100 µM (inactive); with ACHN, > 100 µM (inactive); with HOP-92, 23.7 µM (inactive). In addition, the GI50 in the experiment on A549, in the experiment with CAKI-1, in the experiment with SK-MEL-2 and with M14 was > 100 µM (inactive) each time.

For `CCCCCCCCCCNCCSSCc1ccc(Cl)cc1`, the GI50 is 1.96 µM (inactive) with OVCAR-3; 1.92 µM (inactive) with LOX IMVI; 0.509 µM (active) with SK-MEL-5; 2.95 µM (inactive) with Malme-3M; 0.366 µM (active) in the experiment with SK-MEL-28; 10.2 µM (inactive) in the experiment on A498. In addition, the GI50 in the experiment on UO-31 is 2.25 µM (inactive); in the experiment on SF-268 it was 0.631 µM (active); with CCRF-CEM, 1.64 µM (inactive); in the experiment on SK-OV-3, 3.84 µM (inactive); in the experiment on ACHN, 4.68 µM (inactive); in the experiment on A549, 1.85 µM (inactive). Moreover, the GI50 was 2.18 µM (inactive) in the experiment with CAKI-1, 0.352 µM (active) with SK-MEL-2 and 0.233 µM (active) in the experiment on M14.
